From ChEMBL document CHEMBL1201862, “PubChem BioAssay data set” (2004)
Counter-ions that a name gives are not always drawn. The source made the active and inactive calls.

What was measured:
Mu-type opioid receptor = Mu-type opioid receptor (Homo sapiens, UniProt P35372); format: functional, cell-based;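 further: U2OS cells with beta-arrestin recruitment to OPRM1 by beta-gal complementation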
[1] = target: T1, Heat shock factor protein 1 (Mus musculus, UniProt P38532); experiment: inhibition of MG132-induced HSE-luciferase signal, confirmation, cell-based, NIH3T3, luminescence, dose retest (AID 2382); format: functional;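 further: NIH3T3 fibroblasts with HSF1-driven luciferase reporter stressed by proteasome inhibitor MG132; luminescence from HSF1-driven luciferase expression after 8 hours of MG132 stress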
T1 sequence (P38532 whole entry): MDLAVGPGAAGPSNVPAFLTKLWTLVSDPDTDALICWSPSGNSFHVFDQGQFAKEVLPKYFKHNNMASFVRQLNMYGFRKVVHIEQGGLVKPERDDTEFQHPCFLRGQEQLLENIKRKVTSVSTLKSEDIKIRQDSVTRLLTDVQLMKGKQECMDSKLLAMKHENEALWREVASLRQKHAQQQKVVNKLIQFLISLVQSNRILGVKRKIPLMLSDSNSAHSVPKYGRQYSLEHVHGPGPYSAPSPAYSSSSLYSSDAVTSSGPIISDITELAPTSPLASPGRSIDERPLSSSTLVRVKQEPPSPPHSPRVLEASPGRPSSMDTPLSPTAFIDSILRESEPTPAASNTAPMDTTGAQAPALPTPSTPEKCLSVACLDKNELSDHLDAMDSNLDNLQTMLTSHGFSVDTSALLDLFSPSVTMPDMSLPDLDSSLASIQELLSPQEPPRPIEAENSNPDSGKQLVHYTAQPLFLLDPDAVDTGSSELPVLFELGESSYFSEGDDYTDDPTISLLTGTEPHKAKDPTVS

[2] = target: 5-hydroxytryptamine receptor 2A (Mus musculus, UniProt P35363); format: functional, cell-based;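 further: CHO-K1 cells with tagged receptor and beta-arrestin; agonist potency measured as compound-induced activation of the receptor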
[3] = HEK293T cytotoxicity, dose response, cytotoxicity control for miR-122 modulator project, cell-based, activator set, cherry-pick (AID 720690); format: functional;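 further: HEK293T human cells scored for general mammalian cytotoxicity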
[4] = P. falciparum Dd2 growth inhibitors, dose response, SYBR Green, dry powder samples, set 9 (AID 1159568); format: functional, cell-based
[5] = miR-122 activators in hepatoma reporter cells, dose response, cell-based, Huh7 psiCHECK-miR122, Renilla luciferase, cherry-picked (AID 651956); format: functional;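 further: huh7 hepatoma cells stably carrying a psiCHECK-2 miR-122 sensor plasmid; renilla luciferase signal reporting endogenous miR-122 activity after 48 h compound exposure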
[6] = inhibitors of HIV Env-driven cell fusion, dose response, cherry-pick (AID 652057); format: functional, cell-based
[7] = CEM21 lymphoblast cell cytotoxicity, dose response, cytotoxicity control for viral fusion inhibitor project, CellTiter-Glo luminescence, cherry-picked (AID 652042); format: functional, cell-based;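 further: potency for signal decrease meaning cytotoxicity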
[8] = ZM109 Env clade C HIV-1 fusion inhibitors, dose response, HeLa effector, CEM target cells, luciferase, cherry-pick (AID 652058); format: functional, cell-based
[9] = inhibitors of clade B AD8 Env fusion, dose response, cell-based, cherry-pick (AID 652062); format: functional;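 further: luciferase signal from cell-cell fusion driven by HIV-1 clade B AD8 Env; potency is for inhibitors of fusion seen as a drop in luminescence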
[10] = target: Endoplasmic reticulum aminopeptidase 1 (Homo sapiens, UniProt Q9NZ08); experiment: ERAP1 aminopeptidase inhibitors, dose response, biochemical, cherry-pick, set 2, plate reader (AID 743314)
[11] = target: T2, Low molecular weight phosphotyrosine protein phosphatase (Homo sapiens, UniProt P24666); experiment: LMPTP phosphatase inhibitors, dose response, biochemical, OMFP substrate, fluorescence intensity, set 2 (AID 743307); format: functional
T2 sequence (P24666 whole entry): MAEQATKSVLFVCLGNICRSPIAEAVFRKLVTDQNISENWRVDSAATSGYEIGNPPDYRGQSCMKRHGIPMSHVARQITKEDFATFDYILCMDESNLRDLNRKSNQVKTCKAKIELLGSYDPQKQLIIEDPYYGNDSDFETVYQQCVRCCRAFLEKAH

[12] = target: T2, Low molecular weight phosphotyrosine protein phosphatase; experiment: LMPTP phosphatase inhibitors, colorimetric pNPP readout, dose response, orthogonal assay, biochemical, absorbance, pNPP substrate, LMPTP-A isoform, set 2 (AID 743308); format: functional
[13] = target: RNA-editing ligase 1, mitochondrial (Trypanosoma brucei brucei, UniProt P86926); experiment: TbREL1 ligase inhibitors, dose response, biochemical, fluorescence, Trypanosoma brucei (AID 1117295); format: functional
cells = format: functional, cell-based; conditions: HEK-CNG
Galanin receptor type 3 = Galanin receptor type 3 (Homo sapiens, UniProt O60755); experiment: Fluorescence-based cell-based primary high throughput dose response assay to identify antagonists of the Galanin Receptor 3 (GalR3).; format: functional
Galanin receptor type 3, sequence (O60755 whole entry): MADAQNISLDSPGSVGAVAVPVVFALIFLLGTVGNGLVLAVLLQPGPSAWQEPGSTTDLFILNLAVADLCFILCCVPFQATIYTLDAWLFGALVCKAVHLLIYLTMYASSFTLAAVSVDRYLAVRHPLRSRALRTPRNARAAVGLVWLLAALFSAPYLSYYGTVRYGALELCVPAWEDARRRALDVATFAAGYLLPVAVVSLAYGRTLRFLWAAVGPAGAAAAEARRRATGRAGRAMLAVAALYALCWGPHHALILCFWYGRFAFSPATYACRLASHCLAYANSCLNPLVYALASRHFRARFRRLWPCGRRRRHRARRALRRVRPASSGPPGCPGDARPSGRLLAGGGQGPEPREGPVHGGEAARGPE

5-hydroxytryptamine receptor 2A, sequence (P35363 whole entry): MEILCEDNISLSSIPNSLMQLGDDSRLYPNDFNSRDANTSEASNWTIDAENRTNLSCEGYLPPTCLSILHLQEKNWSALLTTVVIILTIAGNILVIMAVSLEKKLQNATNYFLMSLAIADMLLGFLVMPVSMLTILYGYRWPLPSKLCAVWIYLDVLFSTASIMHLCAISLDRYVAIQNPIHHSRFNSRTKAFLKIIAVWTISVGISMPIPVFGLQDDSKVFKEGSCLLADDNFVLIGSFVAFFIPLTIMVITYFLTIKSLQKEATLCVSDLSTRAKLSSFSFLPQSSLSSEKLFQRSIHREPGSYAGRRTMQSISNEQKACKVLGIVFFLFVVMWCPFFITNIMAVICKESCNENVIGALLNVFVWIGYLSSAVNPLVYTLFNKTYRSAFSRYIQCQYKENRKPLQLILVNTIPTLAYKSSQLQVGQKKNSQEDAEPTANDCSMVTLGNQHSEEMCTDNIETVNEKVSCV
Mu-type opioid receptor, sequence (P35372 whole entry): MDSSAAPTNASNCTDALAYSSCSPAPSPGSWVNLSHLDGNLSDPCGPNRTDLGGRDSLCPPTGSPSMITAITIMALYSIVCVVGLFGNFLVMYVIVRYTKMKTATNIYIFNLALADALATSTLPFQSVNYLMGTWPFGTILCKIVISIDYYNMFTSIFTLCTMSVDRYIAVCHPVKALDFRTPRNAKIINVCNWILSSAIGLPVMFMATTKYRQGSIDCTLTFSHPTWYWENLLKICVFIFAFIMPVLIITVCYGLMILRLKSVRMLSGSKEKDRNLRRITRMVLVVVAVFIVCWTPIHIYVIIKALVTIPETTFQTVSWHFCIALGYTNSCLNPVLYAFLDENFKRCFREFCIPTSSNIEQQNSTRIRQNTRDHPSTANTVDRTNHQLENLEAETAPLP
Endoplasmic reticulum aminopeptidase 1, sequence (Q9NZ08 whole entry): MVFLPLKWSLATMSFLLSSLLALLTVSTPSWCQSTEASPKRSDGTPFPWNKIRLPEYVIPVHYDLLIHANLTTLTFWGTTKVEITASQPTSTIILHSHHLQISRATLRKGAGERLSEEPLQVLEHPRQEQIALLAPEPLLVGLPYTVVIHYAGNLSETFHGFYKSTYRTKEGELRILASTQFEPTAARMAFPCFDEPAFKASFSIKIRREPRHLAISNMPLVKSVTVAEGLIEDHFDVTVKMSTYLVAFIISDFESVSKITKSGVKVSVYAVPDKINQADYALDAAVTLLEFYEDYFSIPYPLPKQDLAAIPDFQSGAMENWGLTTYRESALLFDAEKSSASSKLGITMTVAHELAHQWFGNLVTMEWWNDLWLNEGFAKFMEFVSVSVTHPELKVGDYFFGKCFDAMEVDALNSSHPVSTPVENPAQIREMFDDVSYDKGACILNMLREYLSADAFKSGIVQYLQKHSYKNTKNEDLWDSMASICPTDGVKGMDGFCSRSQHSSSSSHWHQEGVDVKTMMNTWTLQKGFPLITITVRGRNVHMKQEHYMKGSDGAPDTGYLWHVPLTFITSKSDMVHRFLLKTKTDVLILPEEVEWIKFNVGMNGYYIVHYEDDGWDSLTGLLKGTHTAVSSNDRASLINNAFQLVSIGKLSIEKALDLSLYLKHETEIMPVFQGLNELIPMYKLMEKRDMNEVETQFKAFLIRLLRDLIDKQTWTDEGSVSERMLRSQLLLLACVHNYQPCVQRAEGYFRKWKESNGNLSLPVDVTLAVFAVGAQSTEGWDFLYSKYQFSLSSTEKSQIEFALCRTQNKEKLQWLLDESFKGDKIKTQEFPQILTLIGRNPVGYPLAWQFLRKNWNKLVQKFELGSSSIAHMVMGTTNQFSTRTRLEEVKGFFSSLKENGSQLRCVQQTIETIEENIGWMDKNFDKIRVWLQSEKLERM
RNA-editing ligase 1, mitochondrial, sequence (P86926 whole entry): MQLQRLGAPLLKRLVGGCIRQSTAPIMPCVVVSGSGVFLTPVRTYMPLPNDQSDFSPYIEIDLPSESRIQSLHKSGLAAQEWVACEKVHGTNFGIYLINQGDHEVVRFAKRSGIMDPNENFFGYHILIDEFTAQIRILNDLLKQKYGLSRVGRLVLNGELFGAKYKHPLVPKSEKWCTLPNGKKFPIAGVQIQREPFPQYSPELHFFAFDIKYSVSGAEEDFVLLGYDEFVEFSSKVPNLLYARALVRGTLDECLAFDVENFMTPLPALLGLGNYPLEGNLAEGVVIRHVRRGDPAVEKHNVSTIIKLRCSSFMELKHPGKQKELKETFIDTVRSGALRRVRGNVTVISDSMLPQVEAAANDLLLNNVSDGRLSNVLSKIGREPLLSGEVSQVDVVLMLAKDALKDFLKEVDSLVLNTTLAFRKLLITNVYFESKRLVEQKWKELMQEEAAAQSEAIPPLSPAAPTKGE

CN1CCc2c(sc(/N=C/c3cc(C(C)(C)C)ccc3O)c2C#N)C1
EC50 (Mu-type opioid receptor): 92.6 µM (inactive)
EC50 [1]: > 195 µM (not active)
EC50 [2]: 12.9 µM (inactive)

CN1C(=O)c2cc(NC(=O)c3ccc(C(F)(F)F)cc3)ccc2OC[C@H]2O[C@H](CC(=O)NCc3ccc4c(c3)OCO4)CC[C@@H]21
AC50 [3]: 22 µM (active)
AC50 [4]: 12.6 µM (active)
AC50 [5]: 8.04 µM (active)

C[C@@H]1CN([C@H](C)CO)S(=O)(=O)c2ccc(C3=CCCCC3)cc2O[C@@H]1CN(C)S(=O)(=O)c1ccc(F)cc1
AC50 [6]: 8.56 µM (active)
AC50 [7]: 32.5 µM (active)
AC50 [8]: 12.1 µM (active)
AC50 [9]: 7.76 µM (active)

COC(=O)[C@H]1[C@H](CO)[C@H]2Cn3c(ccc(/C=C/c4ccccc4)c3=O)[C@@H]1N2C(=O)C1CCC1
AC50 [10]: 4.93 µM (active)

Clc1ccc(-c2cc(NCCCN3CCCCC3)c3ccccc3n2)cc1
IC50 [11]: 1.54 µM (active)
IC50 [12]: 2.88 µM (active)

O=C(O)C[C@H]1CC[C@@H]2[C@H](COC[C@@H](O)CN2S(=O)(=O)c2ccc(Oc3ccccc3)cc2)O1
AC50 [4]: 31.1 µM (active)

COC(=O)C1=C(C)N(Cc2cccc(C(F)(F)F)c2)C(NCc2ccccc2C(F)(F)F)=NC1c1ccccc1C(F)(F)F (stereo unspecified)
IC50 [13]: > 96.6 µM (inactive)

c1ccc(-c2nc(N3CCCCC3)c3ccccc3n2)cc1
IC50 [11]: > 80 µM (inactive)
IC50 [12]: > 80 µM (inactive)

COc1c2c(cc3c1OCO3)CCN(C)C2 [HYDROCOTARNINE HYDROBROMIDE]
EC50 (Mu-type opioid receptor): 92.4 µM (inactive)
EC50 [2]: 76 µM (inactive)

OCc1cc(C(O)CNCCCCCCOCCCCc2ccccc2)ccc1O (stereo unspecified) [SALMETEROL XINAFOATE]
EC50 (cells): > 29.9 µM (inactive)
IC50 (Galanin receptor type 3): > 29.9 µM (inactive)
